Measured values published in PMC4965148 (PLoS ONE, 2016).
Several values for one entry are separate records, joined by “and”; a condition that tells them apart may be missing. Identical values can stand only once. Entries after “also recorded” stand apart in the source; their conditions may differ.

Legend:
rat α1β1δε nAChR = target: T1, rat α1β1δε nAChR (Rattus norvegicus, UniProt P09660+P25108+P25109+P25110); assay: Ca2+ flux (FLIPR) agonist/antagonist assay; assay type: cell-based; conditions: FLIPR antagonist mode, EC90 ACh
T1 construct: expressed in transfected cells; host or cells: HEK293 (made by Bristol-Myers Squibb)

[1] = system: neonatal PCP treated rats; assay: Rat neonatal PCP ID/ED set shifting; assay type: in vivo; conditions: for Number of trials to criteria, Complex discrimination / Number of trials to criteria, Simple discrimination: individual rats
Description: Male pups were treated with either 0.9% saline (sham) or PCP (20 mg/kg, sc) on post-natal days 7, 9 and 11 and then singly housed after weaning on postnatal days 21–25. All studies were conducted in adult animals (2–4 months of age) using methods adapted from. Rats were food-restricted (15g/rat/day) for 7 days prior to the initiation of training and throughout the remainder of the study. At the time of testing the average (± SEM) body weight ranged from 278 ± 6g to 296 ± 9g across the individual treatment groups. The animals then received 3 days of training during which they were handled, habituated to the test arena (5 min/day) and trained to dig in a ceramic pot for a food reward (Honey Nut Cheerios). The testing arena was constructed of black plastic (45 cm wide x 60 cm long x 45 cm tall) and divided into 3 compartments, i.e. a separate starting box and 2 choice boxes separated by an opaque wall. Each choice box contained a terracotta (4 inch diameter) pot, filled with digging media and with scented oil applied to the rim. At the beginning of each trial the animal was placed in the start box, the sliding door was opened and the subject was allowed to freely explore the two choice boxes. Both pots were initially baited with food until the subject reliably retrieved the food rewards from each. Thereafter, rats were trained to discriminate between either 2 distinct odors (stimulus dimension 1) or 2 distinct digging media (stimulus dimension 2) in order to correctly identify the baited pot. On the first trial only, rats were allowed to dig in both pots if an error was made (with the trial scored as an error trial). Thereafter animals were allowed to dig in one pot only per trial and were tested until the performance criterion of 6 consecutive correct choices was achieved. Each trial was limited to a maximum duration of 5 min and any subject not achieving performance criteria was eliminated from the study. On completion of a successful odor discrimination animals were then trained to successfully complete a simple discrimination trial based on digging media. Odor and digging media used in these initial training trials were not used again for ID/ED testing. […] All subjects were brought to the experimental laboratory at least 30 min prior to behavioral assessment. To determine ID/ED performance rats were tested for their ability to successfully complete a series of discriminations based on either odor or digging media. In all instances subjects were pre-assigned one stimulus dimension (i.e. digging media or odor) as the correct predictor of the food reward for the first series of discriminations. Only at the final stage i.e. the extra-dimensional shift (EDS) was the subject required to shift attention away from the assigned stimulus dimension to a different dimension (e.g. odor to digging media) to correctly identify the baited pot. The sequence of discriminations was a follows: simple discrimination (SD), compound discrimination (CD), intra-dimensional shift 1 (IDS1), intra-dimensional shift 2 (IDS2), intra-dimensional shift 2 reversal (IDS2rev) and EDS and examples of exemplars are shown in S1 Table. For all discrimination stages successful completion was defined as 6 consecutive correct trials at which point subjects progressed to the next phase of the task. The test session ended when either i) all discrimination phases were successfully completed or ii) testing had proceeded for 120 min. The average duration of a test session was 1 h and all subjects completed the ID/ED task within the allotted timeframe.

Adenosine A2a = Adenosine A2a (Homo sapiens, UniProt P29274); assay: Selectivity panel, binding
Chain of Adenosine A2a (P29274 whole entry): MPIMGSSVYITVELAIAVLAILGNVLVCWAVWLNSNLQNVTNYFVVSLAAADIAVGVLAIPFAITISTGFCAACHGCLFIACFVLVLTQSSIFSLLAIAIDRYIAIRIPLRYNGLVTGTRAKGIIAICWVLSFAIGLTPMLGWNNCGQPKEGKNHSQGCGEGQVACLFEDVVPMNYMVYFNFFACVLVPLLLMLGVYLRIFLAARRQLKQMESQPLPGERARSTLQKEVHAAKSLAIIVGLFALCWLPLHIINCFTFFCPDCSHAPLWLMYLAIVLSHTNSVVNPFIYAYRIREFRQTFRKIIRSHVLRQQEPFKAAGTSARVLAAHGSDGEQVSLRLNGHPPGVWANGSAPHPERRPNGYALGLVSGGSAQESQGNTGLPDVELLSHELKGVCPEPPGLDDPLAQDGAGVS

Adrenergic α1D = Adrenergic α1D (Homo sapiens, UniProt P25100); assay: Selectivity panel, binding
Adrenergic α2A = Adrenergic α2A (Homo sapiens, UniProt P08913); assay: Selectivity panel, binding
Chain of Adrenergic α2A (P08913 whole entry): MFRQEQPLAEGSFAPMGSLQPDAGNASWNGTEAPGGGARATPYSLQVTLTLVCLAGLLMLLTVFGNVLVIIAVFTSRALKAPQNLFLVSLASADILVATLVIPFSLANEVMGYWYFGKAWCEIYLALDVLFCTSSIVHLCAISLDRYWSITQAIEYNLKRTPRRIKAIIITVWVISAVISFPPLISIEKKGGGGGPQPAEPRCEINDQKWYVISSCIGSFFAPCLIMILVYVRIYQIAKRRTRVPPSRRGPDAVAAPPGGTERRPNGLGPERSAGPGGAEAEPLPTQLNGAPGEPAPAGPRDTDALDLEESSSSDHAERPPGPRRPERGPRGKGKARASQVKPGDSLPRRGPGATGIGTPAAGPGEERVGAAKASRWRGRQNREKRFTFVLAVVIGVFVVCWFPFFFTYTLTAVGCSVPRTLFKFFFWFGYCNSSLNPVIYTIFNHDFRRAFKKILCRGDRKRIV

Adrenergic α2C = Adrenergic α2C (Homo sapiens, UniProt P18825); assay: Selectivity panel, binding
Chain of Adrenergic α2C (P18825 whole entry): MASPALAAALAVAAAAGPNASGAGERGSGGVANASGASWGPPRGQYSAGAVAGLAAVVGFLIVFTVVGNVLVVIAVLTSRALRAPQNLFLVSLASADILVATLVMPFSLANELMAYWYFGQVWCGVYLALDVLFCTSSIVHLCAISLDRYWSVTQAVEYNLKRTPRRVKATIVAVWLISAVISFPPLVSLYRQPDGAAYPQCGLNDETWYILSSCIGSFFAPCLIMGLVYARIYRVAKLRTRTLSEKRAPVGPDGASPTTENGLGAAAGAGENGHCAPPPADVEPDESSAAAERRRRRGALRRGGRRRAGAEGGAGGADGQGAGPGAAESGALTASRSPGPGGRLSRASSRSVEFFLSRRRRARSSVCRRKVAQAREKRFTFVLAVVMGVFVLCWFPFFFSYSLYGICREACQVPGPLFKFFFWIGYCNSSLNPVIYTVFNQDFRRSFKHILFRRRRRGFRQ

Nav1.5 = Nav1.5 (Homo sapiens, UniProt Q14524); assay: Selectivity panel, functional; assay type: cell-based
Chain of Nav1.5 (Q14524 whole entry): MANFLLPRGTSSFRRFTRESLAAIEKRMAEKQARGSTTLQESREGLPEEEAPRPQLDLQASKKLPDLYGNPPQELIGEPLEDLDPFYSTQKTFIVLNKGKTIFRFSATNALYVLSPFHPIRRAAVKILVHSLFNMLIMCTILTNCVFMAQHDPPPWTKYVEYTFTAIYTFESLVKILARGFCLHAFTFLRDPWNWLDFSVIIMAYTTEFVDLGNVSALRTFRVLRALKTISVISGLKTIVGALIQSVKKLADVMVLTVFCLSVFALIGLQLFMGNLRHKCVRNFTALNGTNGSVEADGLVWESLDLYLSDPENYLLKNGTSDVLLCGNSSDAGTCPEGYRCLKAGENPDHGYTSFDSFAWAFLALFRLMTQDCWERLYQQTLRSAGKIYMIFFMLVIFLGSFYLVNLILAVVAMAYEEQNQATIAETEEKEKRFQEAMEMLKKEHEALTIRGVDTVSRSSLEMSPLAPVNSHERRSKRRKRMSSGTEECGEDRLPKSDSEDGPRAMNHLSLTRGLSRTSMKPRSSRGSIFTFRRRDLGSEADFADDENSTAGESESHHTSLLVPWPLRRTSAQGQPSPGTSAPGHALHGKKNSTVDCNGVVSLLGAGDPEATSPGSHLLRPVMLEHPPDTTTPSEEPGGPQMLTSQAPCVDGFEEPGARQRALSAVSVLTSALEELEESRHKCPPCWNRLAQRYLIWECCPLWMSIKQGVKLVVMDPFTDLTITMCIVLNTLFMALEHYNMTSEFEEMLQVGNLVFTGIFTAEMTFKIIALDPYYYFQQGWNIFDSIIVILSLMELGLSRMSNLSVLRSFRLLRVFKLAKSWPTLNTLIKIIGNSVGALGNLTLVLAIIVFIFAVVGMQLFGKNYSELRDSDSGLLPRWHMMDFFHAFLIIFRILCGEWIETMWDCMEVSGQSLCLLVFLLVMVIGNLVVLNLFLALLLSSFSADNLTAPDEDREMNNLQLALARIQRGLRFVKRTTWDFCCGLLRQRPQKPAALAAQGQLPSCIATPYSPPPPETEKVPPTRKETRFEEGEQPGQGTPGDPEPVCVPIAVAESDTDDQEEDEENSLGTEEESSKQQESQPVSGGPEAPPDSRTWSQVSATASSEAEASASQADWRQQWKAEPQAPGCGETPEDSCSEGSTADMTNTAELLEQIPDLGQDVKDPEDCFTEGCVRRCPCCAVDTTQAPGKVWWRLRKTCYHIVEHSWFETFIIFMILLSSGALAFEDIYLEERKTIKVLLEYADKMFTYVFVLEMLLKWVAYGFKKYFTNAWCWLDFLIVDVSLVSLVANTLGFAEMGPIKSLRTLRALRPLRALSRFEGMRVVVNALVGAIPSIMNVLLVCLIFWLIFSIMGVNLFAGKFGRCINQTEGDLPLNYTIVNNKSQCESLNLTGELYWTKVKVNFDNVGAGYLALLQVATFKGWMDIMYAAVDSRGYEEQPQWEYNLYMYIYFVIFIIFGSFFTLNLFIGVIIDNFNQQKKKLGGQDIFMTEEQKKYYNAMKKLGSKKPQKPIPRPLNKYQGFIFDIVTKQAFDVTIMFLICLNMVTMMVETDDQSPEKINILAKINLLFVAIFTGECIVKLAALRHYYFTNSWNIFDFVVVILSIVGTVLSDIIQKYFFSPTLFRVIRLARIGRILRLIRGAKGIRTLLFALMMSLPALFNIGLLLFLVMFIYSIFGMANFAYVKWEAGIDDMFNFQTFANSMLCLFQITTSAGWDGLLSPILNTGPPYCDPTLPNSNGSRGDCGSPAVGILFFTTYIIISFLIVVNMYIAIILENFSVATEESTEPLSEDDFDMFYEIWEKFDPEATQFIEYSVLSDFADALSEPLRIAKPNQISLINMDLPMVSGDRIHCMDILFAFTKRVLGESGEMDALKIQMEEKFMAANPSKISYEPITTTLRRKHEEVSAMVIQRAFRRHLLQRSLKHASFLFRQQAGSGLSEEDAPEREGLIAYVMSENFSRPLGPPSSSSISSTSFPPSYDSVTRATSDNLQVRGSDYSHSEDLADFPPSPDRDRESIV

Dopamine transporter = Dopamine transporter (Homo sapiens, UniProt Q01959); assay: Selectivity panel, binding
Chain of Dopamine transporter (Q01959 whole entry): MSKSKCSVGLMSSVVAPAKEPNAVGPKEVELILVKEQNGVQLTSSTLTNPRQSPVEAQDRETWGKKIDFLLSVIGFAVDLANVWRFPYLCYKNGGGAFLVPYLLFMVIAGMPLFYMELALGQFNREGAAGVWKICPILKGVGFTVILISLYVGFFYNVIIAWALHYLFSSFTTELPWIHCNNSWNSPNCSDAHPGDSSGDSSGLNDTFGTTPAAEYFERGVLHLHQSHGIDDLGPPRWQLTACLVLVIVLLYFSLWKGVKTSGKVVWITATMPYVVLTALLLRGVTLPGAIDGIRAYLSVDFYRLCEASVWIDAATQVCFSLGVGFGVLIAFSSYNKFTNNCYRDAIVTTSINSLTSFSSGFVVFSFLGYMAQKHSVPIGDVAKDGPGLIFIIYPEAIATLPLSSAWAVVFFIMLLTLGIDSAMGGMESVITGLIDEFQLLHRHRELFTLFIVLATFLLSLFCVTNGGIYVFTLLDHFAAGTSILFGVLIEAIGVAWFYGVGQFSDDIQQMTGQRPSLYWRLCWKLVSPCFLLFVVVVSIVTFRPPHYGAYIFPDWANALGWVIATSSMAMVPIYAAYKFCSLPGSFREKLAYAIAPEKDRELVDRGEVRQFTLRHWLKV

GABA-A α1β2γ2 = GABA-A α1β2γ2 (Homo sapiens, UniProt P14867+P18507+P47870); assay: Selectivity panel, functional; assay type: cell-based
Histamine H1 = Histamine H1 (Homo sapiens, UniProt P35367); assay: Selectivity panel, binding
Chain of Histamine H1 (P35367 whole entry): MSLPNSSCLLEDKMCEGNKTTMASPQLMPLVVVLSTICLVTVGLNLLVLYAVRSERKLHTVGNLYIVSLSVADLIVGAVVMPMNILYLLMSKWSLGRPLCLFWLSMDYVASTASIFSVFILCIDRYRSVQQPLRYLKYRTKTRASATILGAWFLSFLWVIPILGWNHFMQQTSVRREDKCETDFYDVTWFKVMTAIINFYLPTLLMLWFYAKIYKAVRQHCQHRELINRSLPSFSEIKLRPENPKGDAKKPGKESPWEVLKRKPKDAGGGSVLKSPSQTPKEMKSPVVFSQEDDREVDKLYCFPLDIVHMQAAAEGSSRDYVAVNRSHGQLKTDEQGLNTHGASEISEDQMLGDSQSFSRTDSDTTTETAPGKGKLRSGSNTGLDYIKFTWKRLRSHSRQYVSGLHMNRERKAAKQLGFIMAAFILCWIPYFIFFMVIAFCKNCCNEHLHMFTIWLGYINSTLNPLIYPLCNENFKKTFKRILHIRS

L-type calcium channel = assay: Selectivity panel, functional; assay type: cell-based; conditions: Human
MAO-A = MAO-A (Homo sapiens, UniProt P21397); assay: Selectivity panel, enzyme; assay type: biochemical
Muscarinic M1 = Muscarinic M1 (Homo sapiens, UniProt P11229); assay: Selectivity panel, binding; conditions: read-out: % inhibition @ 10 µM
Muscarinic M2 = Muscarinic M2 (Homo sapiens, UniProt P08172); assay: Selectivity panel, binding
Muscarinic M3 = Muscarinic M3 (Homo sapiens, UniProt P20309); assay: Selectivity panel, binding; conditions: read-out: % inhibition @ 10 µM
NMDA NR1/2A = NMDA NR1/2A (Homo sapiens, UniProt Q05586+Q12879); assay: Selectivity panel, functional; assay type: cell-based
Opiate Mu = Opiate Mu (Homo sapiens, UniProt P35372); assay: Selectivity panel, binding
Progesterone receptor = Progesterone receptor (Homo sapiens, UniProt P06401); assay: Selectivity panel, binding
5-HT1B = assay: Selectivity panel, binding; conditions: read-out: % inhibition @ 10 µM, Rat
Chain of 5-HT1B (P28222 whole entry): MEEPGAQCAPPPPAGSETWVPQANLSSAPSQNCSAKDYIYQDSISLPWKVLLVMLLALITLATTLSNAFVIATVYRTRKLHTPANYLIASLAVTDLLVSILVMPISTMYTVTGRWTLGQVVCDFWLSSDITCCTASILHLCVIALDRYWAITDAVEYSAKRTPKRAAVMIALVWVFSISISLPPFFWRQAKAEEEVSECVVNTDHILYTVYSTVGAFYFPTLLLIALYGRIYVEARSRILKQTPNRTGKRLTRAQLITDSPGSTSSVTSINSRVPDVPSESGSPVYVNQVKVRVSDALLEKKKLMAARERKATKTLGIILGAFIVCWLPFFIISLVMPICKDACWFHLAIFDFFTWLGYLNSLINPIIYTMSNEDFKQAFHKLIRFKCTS

5-HT transporter = 5-HT transporter (Homo sapiens, UniProt P31645); assay: Selectivity panel, binding
[2] = system: neonatal PCP treated rats; assay: Rat neonatal PCP mismatch negativity
Description: Adult male rats treated neonatally with PCP were implanted with epidural screw electrodes at the following co-ordinates under isoflurane anesthesia: 6 mm rostral and 1 mm off midline to the left from bregma; 5.5 mm rostral to interaural line and 1 mm off to the right from midline. Following recovery EEG recordings were collected from conscious rats housed in individual sound attenuated chambers (Med Associates, St Albans, VT) with the recording electrodes tethered through a low torque commutator system (Plastics One Inc, Roannoke, VA) to a differential amplifier (gain x1000; Warner Instruments, Hamden, CT). […] Baseline EEG was first recorded using Spike v5.19 or later software (CED, Cambridge, UK) to ensure electrical connectivity and an acceptable EEG signal. A simultaneous video was used to assess the general state of the animals during the recordings. […] Tones (70 dB) were delivered through a speaker mounted in the top center of the housing chamber and presented at 450 ms intervals. In each experimental session 700 standard and 100 deviant tones were presented. Data were analyzed using Signal v4.09 software (CED, Cambridge, UK). Artifact free trials were visually identified, corrected for baseline shift using the first 100 ms of the pre-stimulus baseline, 30 Hz low-pass filtered using a second order Butterworth digital filter and averaged to give evoked potential for each subject.

Compound: c1cn(-c2cc(NC3=NC[C@@]4(CN5CCC4CC5)O3)ncn2)cn1 [BMS-933043, (2R)-N-(6-(1H-imidazol-1-yl)-4-pyrimidinyl)-4'H-spiro[4-azabicyclo[2.2.2]octane-2,5'-[1,3]oxazol]-2'-amine]
- IC50 (rat α1β1δε nAChR): > 30 µM
- EDS performance in neonatal PCP treated rats ([1]; 0.1–3 mg/kg po): significantly improved EDS performance; also recorded: completely reversed by all doses
- Number of trials to criteria, Complex discrimination ([1]; PCP/0.1 mg/kg po, 0.1 mg/kg): 6 (2×) and 16 and 7 (2×) and 8 (2×) and 21 and 19
- Number of trials to criteria, Simple discrimination ([1]; PCP/0.1 mg/kg po, 0.1 mg/kg): 7 (3×) and 11 and 9 and 8 (2×) and 10 and 6
- Number of trials to criteria, Complex discrimination ([1]; PCP/0.3 mg/kg po, 0.3 mg/kg): 18 and 10 (2×) and 7 and 6 (3×) and 8 and 16
- Number of trials to criteria, Simple discrimination ([1]; PCP/0.3 mg/kg po, 0.3 mg/kg): 10 and 15 and 13 and 8 and 9 and 12 and 6 and 19 and 7
- Number of trials to criteria, Complex discrimination ([1]; PCP/1 mg/kg po, 1 mg/kg): 6 (2×) and 11 (2×) and 7 (2×) and 13 and 14 (2×)
- Number of trials to criteria, Simple discrimination ([1]; PCP/1 mg/kg po, 1 mg/kg): 6 (3×) and 12 (2×) and 13 and 11 and 8 and 9
- Number of trials to criteria, Complex discrimination ([1]; PCP/3 mg/kg po, 3 mg/kg): 6 (2×) and 8 and 16 and 10 (2×) and 15 and 17 and 11
- Number of trials to criteria, Simple discrimination ([1]; PCP/3 mg/kg po, 3 mg/kg): 7 (4×) and 6 (2×) and 16 (2×) and 9
- Active dose range, Neonatal PCP ID/ED ([1]; po): 0.1–3.0 (po) mg/kg
- longer time to complete the EDS in neonatal PCP treated rats ([1]; po): attenuated
- IC50 (Adenosine A2a): > 30 µM
- IC50 (Adrenergic α1D): > 30 µM
- IC50 (Adrenergic α2A): > 30 µM
- IC50 (Adrenergic α2C): > 30 µM
- IC50 (Nav1.5): > 30 µM
- IC50 (Dopamine transporter): > 30 µM
- IC50 (GABA-A α1β2γ2): > 30 µM
- IC50 (Histamine H1): > 30 µM
- IC50 (L-type calcium channel): > 25 µM
- IC50 (MAO-A): > 30 µM
- inhibition at 10 µM (Muscarinic M1): 11%
- IC50 (Muscarinic M2): 19.1 µM
- inhibition at 10 µM (Muscarinic M3): 18%
- IC50 (NMDA NR1/2A): > 30 µM
- IC50 (Opiate Mu): > 30 µM
- IC50 (Progesterone receptor): > 150 µM
- inhibition at 10 µM (5-HT1B): 0%
- IC50 (5-HT transporter): > 30 µM
- deviance detection (MMN) ([2]; 0.3 mg/kg sc): just failing to achieve statistical significance
- AUC (150-200 ms) of difference wave, Mean ([2]; Study 1, 0.01 mg/kg sc): -6.608e-005
- AUC (150-200 ms) of difference wave, Mean ([2]; Study 1, 0.1 mg/kg sc): -0.0001188
- AUC (150-200 ms) of difference wave, Mean ([2]; Study 2, 0.03 mg/kg sc): -0.0002362
- AUC (150-200 ms) of difference wave, Mean ([2]; Study 2, 0.1 mg/kg sc (so in the source)): -0.0001715
- AUC (150-200 ms) of difference wave, Mean ([2]; Study 3, 1 mg/kg sc): -0.000159
- AUC (150-200 ms) of difference wave, Mean ([2]; Study 3, 3 mg/kg sc): -0.0001341
- deviance detection (MMN) ([2]; doses of 0.03, 0.1, 1 and 3 mg/kg sc): significant deviance detection from a hypothetical zero
- Active dose range, Neonatal PCP MMN ([2]; sc): 0.03–3.0 (sc) mg/kg
